Data reported in patent US20190151283A1, “NON-STEROIDAL SELECTIVE GLUCOCORTICOID RECEPTOR AGONISTIC MODULATORS (SEGRAMs) AND USES THEREOF” (ASSOCIATION POUR LA RECHERCHE À L'IGBMC (ARI), priority 2017, published 2019).

Assays:
Assay type in all cases: in vivo, mouse
Balb/C mice [1] = test: Dextran sodium sulfate (DSS)-induced ulcerative colitis
Description: To investigate the anti-inflammatory activity of CpdX and CpdX-D3 on a Th17 ulcerative colitis, Balb/C mice were treated with 3% DSS in drinking water for 13 days, with or without an intraperitoneal administration of either Dex, CpdX, CpdX(eA), CpdX(eB), CpdX-D3, CpdX-D3(eA) or CpdX-D3(eB) (1 mg/kg of body weight) on D11, D12 and D13.
At D14, RNA transcripts were extracted from mouse colons. IL-1β, IL-6, IL-17a, IL-17f, TSLP and MMP13 transcripts were analyzed by q-RT-PCR. Colon samples were also harvested for histological analyses (with H&E staining).

Balb/C mice [2] = test: Skin atrophy after 8-day topical treatment of dorsal skin
Description: To investigate whether, similarly to Dex, a topical administration of CpdX could result in a skin atrophy, Balb/C mice were shaved on the dorsal skin. Ethanol (vehicle), Dex, CpdX or either one of its two enantiomers CpdX(eA) or CpdX(eB), as well as the deuterated form CpdX-D3 or either one of its two enantiomers CpdX-D3(eA) or CpdX-D3(eB), were topically applied onto the dorsal skin for 8 days.
Upon completion of the treatments, RNA transcripts were extracted from dorsal skin samples and the transcripts of Kindlin-1 and REDD1 genes were analyzed by q-RT-PCR. Histological and morphometric analyses of the dorsal skin were also performed.

B6 male mice [3] = test: Bone formation after three-month treatment (micro-CT, WNT16 transcripts); conditions: s.c. 1 mg/kg daily, three months
Description: B6 male mice (8-week-old) were daily subjected for three months to either a subcutaneous injection of vehicle (NaCl 0.9%), Dex, CpdX, CpdX(eA), CpdX(eB), CpdX-D3, CpdX-D3(eA) or CpdX-D3(eB) (1 mg/kg body weight, diluted in NaCl 0.9%).
From each animal included in the experiments, one femur and the ipsilateral tibia were dissected and preserved in 70% ethanol for further bone microstructure analysis by micro-CT. The FX Quantum micro-CT scanner (Perkin Elmer) was used to perform measurements at the distal femur and midshaft tibia. All scans were performed with an isotropic voxel size of 10 μm, 160 μA tube current and 90 kV tube voltage.
Morphological 3D measurements were performed using the CTAn software (Bruker). Cortical bone parameters, which were measured in the tibia midshaft, included measures of the bone volume fraction as compared to the total volume, cortical thickness, total area, bone area and marrow area. The region of interest was selected from below the distal tibial crest and continued for 20 slices toward the proximal end of the tibia. Trabecular bone parameters were measured in the distal metaphysis of the femurs and included bone volume fraction, trabecular thickness, trabecular number and trabecular spacing. The region of interest was selected from below the distal growth plate where the epiphyseal cap structure completely disappeared and continued for 100 slices toward the proximal end of the femur.
The statistical significance as compared to vehicle treatment was calculated through one-way ANOVA test followed by Dunn's multiple comparison test, *p<0.05; **p<0.01; ***p<0.001; ****p<0.0001.

B6 male mice [4] = test: Organ weights (thymus, spleen, adrenal gland, kidney) after three-month treatment; conditions: s.c. 1 mg/kg daily, three months
Description: B6 male mice (8-week-old) were daily subjected for three months to a subcutaneous injection of either vehicle (NaCl 0.9%), Dex, CpdX, CpdX(eA), CpdX(eB), CpdX-D3, CpdX-D3(eA) or CpdX-D3(eB) (1 mg/kg body weight, diluted in vehicle). Following these treatments, four organs (thymus, spleen, adrenal gland and kidney) were harvested and weighted.

B6 male mice [5] = test: Insulin level, insulin tolerance test and liver insulin signalling after three-month treatment
Description: B6 male mice (8-week-old) were subjected daily for three months to a subcutaneous injection of either vehicle (NaCl 0.9%), Dex, CpdX, CpdX(eA), CpdX(eB), CpdX-D3, CpdX-D3(eA) or CpdX-D3(eB) (1 mg/kg body weight, diluted in vehicle). After three months, the blood was collected at 10 a.m. by retro-orbital puncture in lithium-heparin coated vials, and the plasmatic level of insulin was determined.
For the intraperitoneal insulin tolerance test (IPITT), mice were fasted for 6 hours before test. The blood glucose concentration was measured both before (T0) and during a one-hour period after insulin i.p. injection (0.75 U/kg body weight).
Following this three-month treatment, liver samples were harvested and lysed in the RIPA buffer (20 mM Tris pH 8, 150 mM NaCl, 10% glycerol, 1% NP-40 and 2 mM EDTA). Antibodies from Cell Signaling were used to assess by Western-Blotting the relative level of p-IRS1 (S318), IRS-1, p-AKT (S473) and AKT.

B6 male mice [6] = test: Fatty liver after three-month treatment; conditions: three months
Description: B6 male mice (8-week-old) were daily subjected for three months to a subcutaneous injection of either vehicle (NaCl 0.9%), Dex, CpdX, CpdX(eA), CpdX(eB), CpdX-D3, CpdX-D3(eA) or CpdX-D3(eB) (1 mg/kg body weight, diluted in vehicle). Following this treatment, blood was collected at 10 a.m. by retro-orbital puncture in lithium-heparin coated vials. The plasmatic levels of total cholesterol and bile acids were determined.
Liver samples were harvested. […] RNA transcripts were extracted from liver samples and the transcripts of fatty acid synthase (FASN) and Stearoyl-CoA desaturase 1 (SCD1) genes were analyzed by q-RT-PCR.

[7] = i.p. 1 mg/kg on D11, D12, D13, H&E histology

## COc1ccc(F)cc1C(C)(C)CC(O)(CNc1ccc2c(c1)COC2=O)C(F)(F)F (racemic) [CpdX, 5-[4-(5-fluoro-2-methoxyphenyl)-2-hydroxy-4-methyl-2-(trifluoromethyl)pentylamino]-isobenzofuran-1(3H)-one]
Balb/C mice [1]; colon, q-RT-PCR, D14
  pro-inflammatory genes overexpressed in DSS-induced ulcerative colitis (IL-1β, IL-6, IL-17a, IL-17f, TSLP, MMP13): similarly repressed
Balb/C mice [1]; [7]
  colonic villus/crypt structure: almost reestablished
  mucosal and submucosal cell infiltration: significantly decreased
Balb/C mice [2]; eight-day topical treatment, morphometric analysis
  epidermal thickness: not significantly decreased
Balb/C mice [2]; eight-day topical treatment, 'in marked contrast' = no severe atrophy as with Dex
  skin atrophy, histological analysis: in marked contrast
Balb/C mice [2]; topical 8 days, 1 nmole/cm^2, 'but not' = not increased
  transcription of the REDD1 gene in dorsal skin: but not
B6 male mice [3]
  bone formation in cortical and trabecular bones: did not affect
B6 male mice [4]
  spleen weight: not decreased
  thymus apoptosis / thymus found: did not result in any significant thymus apoptosis
  weight of the adrenal gland: increased
B6 male mice [5]; three months, conclusion
  insulin resistance: does not induce
B6 male mice [5]; western-blot, 'but not' = no decrease
  phosphorylated insulin receptor substrate 1 (p-IRS1 S318) in liver extracts: but not
B6 male mice [6]; 5% Red oil staining of frozen sections
  lipid deposition in the liver: not observed
B6 male mice [6]; q-RT-PCR, 'but not' = no increase
  transcripts of fatty acid synthase (FASN) and Stearoyl-CoA desaturase 1 (SCD1) in liver: but not
B6 male mice [6]; 'but not' = no clear increase
  blood cholesterol and bile acids' levels: but not
